Measured values published in patent publication US20140343000A1 (priority 2011, published 2014).
Structures can show the parent of a compound that is named as a salt.

System: recombinant NL4-3 virus (Renilla luciferase in nef, Gag P373S; NLRluc) in MT-2 cells
Test: whole plant or invertebrate
Assay type: cell-based, HIV
Settings: Renilla, NL43, luciferase activity in cells infected for 4-5 days with NLRluc recombinants, serial dilutions of inhibitor; class symbols (key in Table 1); read-out: EC50
Summary of the method: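 MT-2 cells infected 4–5 days with NL4-3 carrying Renilla luciferase in nef and Gag P373S, with serial dilutions of inhibitor present. Antiviral activity quantified by luciferase activity, using Dual Luciferase reagents premixed with lysis buffer and read immediately.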

First: C=C(C)[C@@H]1CC[C@]2(NCCC(F)(F)F)CC[C@]3(C)[C@H](CC[C@@H]4[C@@]5(C)CC=C(c6ccc(C(=O)O)cc6)C(C)(C)[C@@H]5CC[C@]43C)[C@@H]12 [Example 182, 4-((1R,3aS,5aR,5bR,7aR,11aS,11bR,13aR,13bR)-5a,5b,8,8,11a-pentamethyl-1-(prop-1-en-2-yl)-3a-((3,3,3-trifluoropropyl)amino)-2,3,3a,4,5,5a,5b,6,7,7a,8,11,11a,11b,12,13,13a,13b-octadecahydro-1H-cyclopenta[a]chrysen-9-yl)benzoic acid]
Second: C=C(C)[C@@H]1CC[C@]2(NCCNc3cccnc3)CC[C@]3(C)[C@H](CC[C@@H]4[C@@]5(C)CC=C(c6ccc(C(=O)O)cc6)C(C)(C)[C@@H]5CC[C@]43C)[C@@H]12 [Example 189, 4-((1R,3aS,5aR,5bR,7aR,11aS,11bR,13aR,13bR)-5a,5b,8,8,11a-pentamethyl-1-(prop-1-en-2-yl)-3a-(2-(pyridin-3-ylamino)ethylamino)-2,3,3a,4,5,5a,5b,6,7,7a,8,11,11a,11b,12,13,13a,13b-octadecahydro-1H-cyclopenta[a]chrysen-9-yl)benzoic acid]
The EC50 of the first is higher: over 100 nM for the first, under 100 nM for the second.

C=C(C)[C@@H]1CC[C@]2(Nc3nc(C)c(C)s3)CC[C@]3(C)[C@H](CC[C@@H]4[C@@]5(C)CC=C(c6ccc(C(=O)O)cc6)C(C)(C)[C@@H]5CC[C@]43C)[C@@H]12 [Example 183, 4-((1R,3aS,5aR,5bR,7aR,11aS,11bR,13aR,13bR)-3a-(4,5-dimethylthiazol-2-ylamino)-5a,5b,8,8,11a-pentamethyl-1-(prop-1-en-2-yl)-2,3,3a,4,5,5a,5b,6,7,7a,8,11,11a,11b,12,13,13a,13b-octadecahydro-1H-cyclopenta[a]chrysen-9-yl)benzoic acid] and C=C(C)[C@@H]1CC[C@]2(Nc3nc(CC)cs3)CC[C@]3(C)[C@H](CC[C@@H]4[C@@]5(C)CC=C(c6ccc(C(=O)O)cc6)C(C)(C)[C@@H]5CC[C@]43C)[C@@H]12 [Example 184B, 4-((1R,3aS,5aR,5bR,7aR,11aS,11bR,13aR,13bR)-3a-(4-ethylthiazol-2-ylamino)-5a,5b,8,8,11a-pentamethyl-1-(prop-1-en-2-yl)-2,3,3a,4,5,5a,5b,6,7,7a,8,11,11a,11b,12,13,13a,13b-octadecahydro-1H-cyclopenta[a]chrysen-9-yl)benzoic acid] cannot be ordered by EC50: under 100 nM for the first, under 100 nM for the second.

First: C=C(C)[C@@H]1CC[C@]2(Nc3nc(C(C)(C)C)cs3)CC[C@]3(C)[C@H](CC[C@@H]4[C@@]5(C)CC=C(c6ccc(C(=O)O)cc6)C(C)(C)[C@@H]5CC[C@]43C)[C@@H]12 [Example 185, 4-((1R,3aS,5aR,5bR,7aR,11aS,11bR,13aR,13bR)-3a-(4-tert-butylthiazol-2-ylamino)-5a,5b,8,8,11a-pentamethyl-1-(prop-1-en-2-yl)-2,3,3a,4,5,5a,5b,6,7,7a,8,11,11a,11b,12,13,13a,13b-octadecahydro-1H-cyclopenta[a]chrysen-9-yl)benzoic acid]
Second: C=C(C)[C@@H]1CC[C@]2(Nc3nc(-c4ccccn4)cs3)CC[C@]3(C)[C@H](CC[C@@H]4[C@@]5(C)CC=C(c6ccc(C(=O)O)cc6)C(C)(C)[C@@H]5CC[C@]43C)[C@@H]12 [Example 187, 4-((1R,3aS,5aR,5bR,7aR,11aS,11bR,13aR,13bR)-5a,5b,8,8,11a-pentamethyl-1-(prop-1-en-2-yl)-3a-(4-(pyridin-2-yl)thiazol-2-ylamino)-2,3,3a,4,5,5a,5b,6,7,7a,8,11,11a,11b,12,13,13a,13b-octadecahydro-1H-cyclopenta[a]chrysen-9-yl)benzoic acid, TFA]
The EC50 of the first is higher: over 100 nM for the first, under 100 nM for the second.

C=C(C)[C@@H]1CC[C@]2(NCCNc3ccncc3)CC[C@]3(C)[C@H](CC[C@@H]4[C@@]5(C)CC=C(c6ccc(C(=O)O)cc6)C(C)(C)[C@@H]5CC[C@]43C)[C@@H]12 [Example 190, 4-((1R,3aS,5aR,5bR,7aR,11aS,11bR,13aR,13bR)-5a,5b,8,8,11a-pentamethyl-1-(prop-1-en-2-yl)-3a-(2-(pyridin-4-ylamino)ethylamino)-2,3,3a,4,5,5a,5b,6,7,7a,8,11,11a,11b,12,13,13a,13b-octadecahydro-1H-cyclopenta[a]chrysen-9-yl)benzoic acid] and C=C(C)[C@@H]1CC[C@]2(NCCNc3ccccc3)CC[C@]3(C)[C@H](CC[C@@H]4[C@@]5(C)CC=C(c6ccc(C(=O)O)cc6)C(C)(C)[C@@H]5CC[C@]43C)[C@@H]12 [Example 192, 4-((1R,3aS,5aR,5bR,7aR,11aS,11bR,13aR,13bR)-5a,5b,8,8,11a-pentamethyl-3a-(2-(phenylamino)ethylamino)-1-(prop-1-en-2-yl)-2,3,3a,4,5,5a,5b,6,7,7a,8,11,11a,11b,12,13,13a,13b-octadecahydro-1H-cyclopenta[a]chrysen-9-yl)benzoic acid] cannot be ordered by EC50: under 100 nM for the first, under 100 nM for the second.

In the case of C=C(C)[C@@H]1CC[C@]2(NCCNc3nccn3C)CC[C@]3(C)[C@H](CC[C@@H]4[C@@]5(C)CC=C(c6ccc(C(=O)O)cc6)C(C)(C)[C@@H]5CC[C@]43C)[C@@H]12 [Example 191, 4-((1R,3aS,5aR,5bR,7aR,11aS,11bR,13aR,13bR)-5a,5b,8,8,11a-pentamethyl-3a-(2-(1-methyl-1H-imidazol-2-ylamino)ethylamino)-1-(prop-1-en-2-yl)-2,3,3a,4,5,5a,5b,6,7,7a,8,11,11a,11b,12,13,13a,13b-octadecahydro-1H-cyclopenta[a]chrysen-9-yl)benzoic acid], the EC50 is reported as under 100 nM.

Same assay, conditions: Renilla, NL43, luciferase activity in cells infected for 4-5 days with NLRluc recombinants, serial dilutions of inhibitor; numeric values; read-out: EC50

In order of falling EC50:
1. C=C(C)[C@@H]1CC[C@]2(N(CC(=O)CC)c3nc(CC)cs3)CC[C@]3(C)[C@H](CC[C@@H]4[C@@]5(C)CC=C(c6ccc(C(=O)O)cc6)C(C)(C)[C@@H]5CC[C@]43C)[C@@H]12 [Example 184A, 4-((1R,3aS,5aR,5bR,7aR,11aS,11bR,13aR,13bR)-3a-((4-ethylthiazol-2-yl)(2-oxobutyl)amino)-5a,5b,8,8,11a-pentamethyl-1-(prop-1-en-2-yl)-2,3,3a,4,5,5a,5b,6,7,7a,8,11,11a,11b,12,13,13a,13b-octadecahydro-1H-cyclopenta[a]chrysen-9-yl)benzoic acid]  390 nM
2. C=C(C)[C@@H]1CC[C@]2(NCCNc3nccs3)CC[C@]3(C)[C@H](CC[C@@H]4[C@@]5(C)CC=C(c6ccc(C(=O)O)cc6)C(C)(C)[C@@H]5CC[C@]43C)[C@@H]12 [Example 193, 4-((1R,3aS,5aR,5bR,7aR,11aS,11bR,13aR,13bR)-5a,5b,8,8,11a-pentamethyl-1-(prop-1-en-2-yl)-3a-(2-(thiazol-2-ylamino)ethylamino)-2,3,3a,4,5,5a,5b,6,7,7a,8,11,11a,11b,12,13,13a,13b-octadecahydro-1H-cyclopenta[a]chrysen-9-yl)benzoic acid]  20 nM
3. C=C(C)[C@@H]1CC[C@]2(NCCNc3ccccn3)CC[C@]3(C)[C@H](CC[C@@H]4[C@@]5(C)CC=C(c6ccc(C(=O)O)cc6)C(C)(C)[C@@H]5CC[C@]43C)[C@@H]12 [Example 188, 4-((1R,3aS,5aR,5bR,7aR,11aS,11bR,13aR,13bR)-5a,5b,8,8,11a-pentamethyl-1-(prop-1-en-2-yl)-3a-(2-(pyridin-2-ylamino)ethylamino)-2,3,3a,4,5,5a,5b,6,7,7a,8,11,11a,11b,12,13,13a,13b-octadecahydro-1H-cyclopenta[a]chrysen-9-yl)benzoic acid]  1 nM
